Reference: ChEMBL document CHEMBL1201862, “PubChem BioAssay data set” (2004)
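How tested: cells in 96-well plates exposed to compound for 48 hours at five concentrations. Here, GI50 denotes the concentration required for 50% inhibition of growth.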 Activity calls are given as the source filed them. Cut-off read from the data, not from the text of the source: active = GI50 up to about 1.1 µM and inactive = higher.

Legend:
Experiment in all cases: growth of human tumour cells (NCI), 48 h
UO-31 = test system: UO-31
DLD-1 = test system: DLD-1
SNB-78 = test system: SNB-78
Malme-3M = test system: Malme-3M
NCI-H23 = test system: NCI-H23
KM12 = test system: KM12
A549 = test system: A549
SW-620 = test system: SW-620
NCI-H226 = test system: NCI-H226
DMS-114 = test system: DMS-114
HT-29 = test system: HT-29
CCRF-CEM = test system: CCRF-CEM
DMS-273 = test system: DMS-273
HOP-18 = test system: HOP-18
786-0 = test system: 786-0
MCF7 = test system: MCF7
Hs-578T = test system: Hs-578T
MDA-N = test system: MDA-N
MDA-MB-435 = test system: MDA-MB-435
DU-145 = test system: DU-145

Measured: GI50

O=C1NC2=C(CCCC/C2=N\O)C12CCCCC2
inactive: UO-31 > 100 µM | DLD-1 > 100 µM | SNB-78 > 100 µM | Malme-3M > 100 µM | NCI-H23 > 100 µM | KM12 > 100 µM | A549 > 100 µM | SW-620 > 100 µM | NCI-H226 > 100 µM | DMS-114 > 100 µM | HT-29 > 100 µM

COc1cc(/C=C/C(=O)C(C)(C)C)cc(OC)c1OC
inactive: UO-31 > 100 µM | CCRF-CEM 33.2 µM | DLD-1 37.9 µM | DMS-273 40.1 µM | Malme-3M 71.8 µM | NCI-H23 29.9 µM | HOP-18 > 100 µM | KM12 24.8 µM | A549 32.2 µM | SW-620 32.7 µM | NCI-H226 33.6 µM | 786-0 53.7 µM | DMS-114 25.6 µM | HT-29 38 µM

COC(=O)C12CC3CC(CC(C(=O)O)(C3)C1)C2
inactive: UO-31 > 100 µM | CCRF-CEM > 100 µM | DMS-273 > 100 µM | SNB-78 > 100 µM | NCI-H23 > 100 µM | HOP-18 > 100 µM | KM12 > 100 µM | A549 > 100 µM | SW-620 > 100 µM | 786-0 > 100 µM | HT-29 > 100 µM

CCOC(=O)c1ccc(N(CCOS(=O)(=O)c2ccc(C)cc2)CCOS(=O)(=O)c2ccc(C)cc2)cc1
inactive: UO-31 12.8 µM | MCF7 7.05 µM | CCRF-CEM 2.47 µM | Malme-3M > 100 µM | Hs-578T > 100 µM | MDA-N > 100 µM | NCI-H23 > 100 µM | KM12 > 100 µM | A549 8.91 µM | MDA-MB-435 > 100 µM | SW-620 1.95 µM | HT-29 > 100 µM

Cc1ccc(Nc2n[nH]c(NS(=O)(=O)c3cc(C(=O)Nc4ccc(Cl)cc4)c(Cl)cc3S)n2)cc1
inactive: UO-31 > 100 µM | MCF7 > 100 µM | CCRF-CEM > 100 µM | Malme-3M 50.5 µM | Hs-578T 84.9 µM | MDA-N > 100 µM | NCI-H23 > 100 µM | KM12 > 100 µM | DU-145 > 100 µM | A549 99.8 µM | MDA-MB-435 > 100 µM | SW-620 > 100 µM | HT-29 89.9 µM

CC(=O)O[C@]12CCCCCC1C1(O)C(O)CCCC[C@H]12 (stereo partly specified)
inactive: UO-31 > 100 µM | CCRF-CEM > 100 µM | DMS-273 > 100 µM | SNB-78 > 100 µM | Malme-3M > 100 µM | NCI-H23 > 100 µM | KM12 > 100 µM | A549 > 100 µM | SW-620 > 100 µM | NCI-H226 > 100 µM | 786-0 > 100 µM | DMS-114 > 100 µM | HT-29 > 100 µM

O=S(=O)(O)c1ccc(/N=N\c2ccc(/N=N/c3ccc(/C=C/c4ccc(/N=[N+](\[O-])c5ccc(/C=C/c6ccc(/N=N/c7ccc(/N=N/c8ccc(S(=O)(=O)O)cc8)c8ccccc78)cc6S(=O)(=O)O)c(S(=O)(=O)O)c5)cc4S(=O)(=O)O)c(S(=O)(=O)O)c3)c3ccccc23)cc1
inactive: UO-31 57.4 µM | MCF7 > 100 µM | CCRF-CEM > 100 µM | DLD-1 > 100 µM | DMS-273 > 100 µM | SNB-78 > 100 µM | Malme-3M > 100 µM | NCI-H23 > 100 µM | HOP-18 30.5 µM | KM12 > 100 µM | A549 > 89.1 µM | SW-620 > 100 µM | NCI-H226 > 83.4 µM | DMS-114 > 100 µM | HT-29 > 100 µM

O=C(O)Cc1cccc2c1Oc1ccccc1S2
inactive: UO-31 > 100 µM | CCRF-CEM > 100 µM | DLD-1 > 100 µM | DMS-273 > 100 µM | SNB-78 > 100 µM | Malme-3M > 100 µM | NCI-H23 > 100 µM | KM12 > 100 µM | A549 > 100 µM | SW-620 > 100 µM | NCI-H226 > 100 µM | 786-0 > 100 µM | DMS-114 > 100 µM | HT-29 > 100 µM

C[C@]12CCC(=O)C(O)=C1CC[C@@H]1[C@@H]2CC[C@]2(C)C(=O)CC[C@@H]12 [FORMESTANE]
inactive: UO-31 > 90.2 µM | MCF7 > 100 µM | CCRF-CEM > 100 µM | DLD-1 > 100 µM | SNB-78 > 100 µM | Malme-3M > 100 µM | Hs-578T > 100 µM | MDA-N > 100 µM | NCI-H23 > 100 µM | KM12 > 74.3 µM | DU-145 > 100 µM | A549 > 100 µM | MDA-MB-435 > 100 µM | SW-620 > 100 µM | NCI-H226 > 100 µM | 786-0 > 100 µM | DMS-114 > 100 µM | HT-29 > 92.7 µM
